Tests used:
JAK1 = JAK1 (Homo sapiens, UniProt P23458); assay: Biochemical potency on JAK1, TR-FRET (LANCE Ultra kinase assay); conditions: ATP corresponding to Km; cell-free; read-out: JAK1 inhibitory activity (pIC50) (converted)
Procedure, shortened: (§1)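 ULight-JAK-1 (Tyr1023) peptide phosphorylation at Km ATP, 1.5 h r.t.; substrate solution held peptide 30/50/20/10 nM and ATP 20/0.7/0.2/12 μM, enzyme solution 0.15/0.083/0.025/0.144 ng/μL (JAK1/JAK2/JAK3/TYK2). EDTA stop, Eu-PT66 antibody TR-FRET read at 665 nm; 11-point 5-fold dilutions from 20 μM; IC50 by variable-slope fit.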

JAK2 = JAK2 (Homo sapiens, UniProt O60674); assay: Biochemical potency on JAK2, TR-FRET (LANCE Ultra kinase assay); conditions: ATP corresponding to Km; cell-free; read-out: JAK2 inhibitory activity (pIC50) (converted)
Chain of JAK2 (O60674 whole entry): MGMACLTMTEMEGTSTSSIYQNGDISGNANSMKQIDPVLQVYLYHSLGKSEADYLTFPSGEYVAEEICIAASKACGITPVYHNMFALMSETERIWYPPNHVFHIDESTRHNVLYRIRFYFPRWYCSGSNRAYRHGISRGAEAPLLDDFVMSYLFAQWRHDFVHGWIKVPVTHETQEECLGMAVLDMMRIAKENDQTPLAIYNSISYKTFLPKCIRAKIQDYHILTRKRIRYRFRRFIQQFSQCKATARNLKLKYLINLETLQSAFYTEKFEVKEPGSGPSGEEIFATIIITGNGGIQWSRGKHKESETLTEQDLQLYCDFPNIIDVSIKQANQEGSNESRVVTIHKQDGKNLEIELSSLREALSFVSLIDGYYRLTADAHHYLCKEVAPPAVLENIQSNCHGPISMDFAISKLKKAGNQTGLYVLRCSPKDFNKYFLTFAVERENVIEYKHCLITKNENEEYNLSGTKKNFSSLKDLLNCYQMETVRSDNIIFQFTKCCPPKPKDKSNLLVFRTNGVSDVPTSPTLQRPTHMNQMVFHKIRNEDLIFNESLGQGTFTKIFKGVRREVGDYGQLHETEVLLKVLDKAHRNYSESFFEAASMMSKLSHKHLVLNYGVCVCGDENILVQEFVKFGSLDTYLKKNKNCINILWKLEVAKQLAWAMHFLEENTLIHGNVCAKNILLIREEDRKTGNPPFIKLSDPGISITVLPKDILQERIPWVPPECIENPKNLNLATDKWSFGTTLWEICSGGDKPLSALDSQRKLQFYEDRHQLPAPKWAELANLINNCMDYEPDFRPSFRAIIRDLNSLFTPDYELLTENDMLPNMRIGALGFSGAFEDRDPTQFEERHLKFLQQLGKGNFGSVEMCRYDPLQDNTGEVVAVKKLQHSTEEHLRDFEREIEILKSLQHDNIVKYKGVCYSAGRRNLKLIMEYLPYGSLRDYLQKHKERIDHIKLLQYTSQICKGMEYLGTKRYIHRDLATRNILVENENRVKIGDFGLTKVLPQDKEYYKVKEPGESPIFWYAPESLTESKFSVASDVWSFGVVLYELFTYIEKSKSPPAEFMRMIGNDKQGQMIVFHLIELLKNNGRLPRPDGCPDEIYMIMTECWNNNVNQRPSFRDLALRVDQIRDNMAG
Procedure, shortened: as §1

JAK3 = biological target: T1, JAK3 (Homo sapiens, UniProt P52333); assay: Biochemical potency on JAK3, TR-FRET (LANCE Ultra kinase assay); conditions: ATP corresponding to Km; cell-free; read-out: JAK3 inhibitory activity (pIC50) (converted)
T1 sequence (P52333 1-1124): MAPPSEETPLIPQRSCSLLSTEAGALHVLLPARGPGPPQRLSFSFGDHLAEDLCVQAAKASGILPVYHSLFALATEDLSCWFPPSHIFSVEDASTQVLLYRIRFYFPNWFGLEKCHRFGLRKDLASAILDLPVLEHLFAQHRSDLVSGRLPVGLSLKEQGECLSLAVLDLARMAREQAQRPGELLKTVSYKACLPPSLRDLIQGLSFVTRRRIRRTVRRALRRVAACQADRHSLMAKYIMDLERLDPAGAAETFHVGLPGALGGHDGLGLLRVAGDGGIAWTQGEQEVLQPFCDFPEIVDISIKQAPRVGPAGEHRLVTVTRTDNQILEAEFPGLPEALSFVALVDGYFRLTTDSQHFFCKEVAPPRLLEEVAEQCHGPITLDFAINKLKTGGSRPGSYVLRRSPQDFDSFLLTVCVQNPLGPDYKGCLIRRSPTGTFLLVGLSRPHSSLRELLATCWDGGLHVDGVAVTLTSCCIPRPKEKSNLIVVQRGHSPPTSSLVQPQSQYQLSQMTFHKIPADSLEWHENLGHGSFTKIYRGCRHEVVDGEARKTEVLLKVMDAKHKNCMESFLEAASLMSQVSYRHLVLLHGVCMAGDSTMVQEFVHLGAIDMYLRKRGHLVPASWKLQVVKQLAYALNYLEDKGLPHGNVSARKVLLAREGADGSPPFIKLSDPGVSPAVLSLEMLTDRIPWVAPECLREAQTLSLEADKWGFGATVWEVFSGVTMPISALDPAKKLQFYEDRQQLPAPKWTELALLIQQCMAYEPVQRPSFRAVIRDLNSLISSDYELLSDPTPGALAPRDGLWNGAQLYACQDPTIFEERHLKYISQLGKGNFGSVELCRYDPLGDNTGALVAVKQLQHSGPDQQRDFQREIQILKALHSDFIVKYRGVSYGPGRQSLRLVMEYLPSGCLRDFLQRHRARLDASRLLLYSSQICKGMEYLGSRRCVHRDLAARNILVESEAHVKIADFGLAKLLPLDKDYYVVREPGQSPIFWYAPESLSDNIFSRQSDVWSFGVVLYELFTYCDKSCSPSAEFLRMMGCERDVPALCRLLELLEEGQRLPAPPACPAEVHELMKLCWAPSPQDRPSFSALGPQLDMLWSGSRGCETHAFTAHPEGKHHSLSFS
Procedure, shortened: as §1

TYK2 = TYK2 (Homo sapiens, UniProt P29597); assay: Biochemical potency on Tyk2, TR-FRET (LANCE Ultra kinase assay); conditions: ATP corresponding to Km; cell-free; read-out: TYK2 inhibitory activity (pIC50) (converted)
Chain of TYK2 (P29597 whole entry): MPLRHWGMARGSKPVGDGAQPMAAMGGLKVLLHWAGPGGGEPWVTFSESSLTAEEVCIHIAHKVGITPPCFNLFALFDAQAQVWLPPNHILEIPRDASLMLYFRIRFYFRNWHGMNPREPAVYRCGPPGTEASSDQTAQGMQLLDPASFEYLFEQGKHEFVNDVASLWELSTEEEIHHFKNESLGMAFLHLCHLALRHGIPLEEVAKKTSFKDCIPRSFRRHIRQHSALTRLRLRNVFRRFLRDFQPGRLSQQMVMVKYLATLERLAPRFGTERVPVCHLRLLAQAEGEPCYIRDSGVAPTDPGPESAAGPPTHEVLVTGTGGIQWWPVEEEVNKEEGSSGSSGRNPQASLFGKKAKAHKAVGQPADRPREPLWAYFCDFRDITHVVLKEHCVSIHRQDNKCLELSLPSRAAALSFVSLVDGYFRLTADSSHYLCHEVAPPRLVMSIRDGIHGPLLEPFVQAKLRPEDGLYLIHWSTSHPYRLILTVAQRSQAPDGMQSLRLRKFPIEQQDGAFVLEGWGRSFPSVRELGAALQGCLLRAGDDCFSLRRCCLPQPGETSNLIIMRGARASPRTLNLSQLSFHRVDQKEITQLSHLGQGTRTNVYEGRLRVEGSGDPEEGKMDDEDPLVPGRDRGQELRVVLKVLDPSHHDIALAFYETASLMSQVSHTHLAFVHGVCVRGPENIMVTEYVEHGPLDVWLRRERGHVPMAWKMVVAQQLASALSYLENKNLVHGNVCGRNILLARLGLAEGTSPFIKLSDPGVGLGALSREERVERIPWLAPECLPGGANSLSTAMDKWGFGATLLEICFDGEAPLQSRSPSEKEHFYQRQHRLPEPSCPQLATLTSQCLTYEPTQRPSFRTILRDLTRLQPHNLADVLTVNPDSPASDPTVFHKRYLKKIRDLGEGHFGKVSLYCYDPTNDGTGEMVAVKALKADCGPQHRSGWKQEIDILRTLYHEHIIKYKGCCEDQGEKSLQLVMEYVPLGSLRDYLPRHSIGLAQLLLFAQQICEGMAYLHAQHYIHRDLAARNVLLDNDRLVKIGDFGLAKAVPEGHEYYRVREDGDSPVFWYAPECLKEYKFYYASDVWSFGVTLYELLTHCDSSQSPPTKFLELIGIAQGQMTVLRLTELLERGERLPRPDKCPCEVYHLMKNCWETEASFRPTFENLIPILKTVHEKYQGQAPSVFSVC
Procedure, shortened: as §1

[1] = test system: pSTAT6 in BEAS-2B human cell line; assay: Inhibition of IL-13 induced pSTAT6 in BEAS; assay type: cell-based; conditions: for IC50: Homo sapiens, BEAS-2B, 0.5 h, IL-13 trigger, 30 min, parent compound; for Fold difference parent vs predicted acid metabolite: ratio=IC50 predicted acid metabolite/IC50 ester
Procedure, shortened: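 BEAS-2B cells grown 48 h, pre-treated 30 min with compound, then stimulated 30 min with IL-13. Lysate pSTAT6 (Tyr641) measured by sandwich ELISA. Eleven 5-fold dilutions from 10 μM, in duplicate, fitted to IC50.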

Chain of JAK1 (P23458 whole entry): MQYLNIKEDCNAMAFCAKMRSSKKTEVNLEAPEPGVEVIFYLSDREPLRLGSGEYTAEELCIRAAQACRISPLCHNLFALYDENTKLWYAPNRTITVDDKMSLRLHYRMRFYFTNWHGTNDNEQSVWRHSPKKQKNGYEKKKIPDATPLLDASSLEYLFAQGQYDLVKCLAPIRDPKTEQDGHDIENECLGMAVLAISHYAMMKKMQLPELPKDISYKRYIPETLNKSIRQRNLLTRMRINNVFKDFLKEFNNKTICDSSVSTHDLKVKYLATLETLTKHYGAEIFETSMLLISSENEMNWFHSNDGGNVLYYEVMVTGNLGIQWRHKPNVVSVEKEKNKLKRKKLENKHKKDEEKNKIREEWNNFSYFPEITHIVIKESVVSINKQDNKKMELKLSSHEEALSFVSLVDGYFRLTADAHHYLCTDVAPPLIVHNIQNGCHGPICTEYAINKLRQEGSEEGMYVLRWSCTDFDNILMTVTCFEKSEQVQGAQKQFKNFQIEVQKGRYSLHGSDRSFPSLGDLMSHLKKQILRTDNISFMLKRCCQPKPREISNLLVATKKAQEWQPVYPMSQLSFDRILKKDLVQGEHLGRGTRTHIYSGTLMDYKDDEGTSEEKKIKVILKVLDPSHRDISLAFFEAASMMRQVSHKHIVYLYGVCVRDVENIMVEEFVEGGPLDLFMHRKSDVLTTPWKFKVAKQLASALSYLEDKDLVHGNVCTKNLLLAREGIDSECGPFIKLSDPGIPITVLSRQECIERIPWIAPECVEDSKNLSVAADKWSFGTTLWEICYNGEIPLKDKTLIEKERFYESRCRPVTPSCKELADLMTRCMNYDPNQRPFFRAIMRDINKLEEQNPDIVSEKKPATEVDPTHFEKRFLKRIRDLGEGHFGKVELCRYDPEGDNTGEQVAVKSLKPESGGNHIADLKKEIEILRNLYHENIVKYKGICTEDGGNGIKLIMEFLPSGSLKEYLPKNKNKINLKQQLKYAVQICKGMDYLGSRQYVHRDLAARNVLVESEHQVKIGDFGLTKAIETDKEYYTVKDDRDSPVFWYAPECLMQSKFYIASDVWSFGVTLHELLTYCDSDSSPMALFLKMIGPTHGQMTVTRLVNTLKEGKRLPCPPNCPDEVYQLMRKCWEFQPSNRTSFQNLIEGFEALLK

Compound	IC50 (JAK1)	IC50 (JAK2)	IC50 (JAK3)	IC50 (TYK2)	IC50 [1]	Fold difference parent vs predicted acid metabolite [1]
COc1cc2c(cc1-n1nc(C(=O)NCCN3CCC(C(=O)OCC4CCOCC4)CC3)c3cnc(-c4cnn5cccnc45)cc31)OCCN2 [Example 18, (tetrahydro-2H-pyran-4-yl)methyl 1-(2-(1-(6-methoxy-3,4-dihydro-2H-benzo[b][1,4]oxazin-7-yl)-6-(pyrazolo[1,5-a]pyrimidin-3-yl)-1H-pyrazolo[4,3-c]pyridine-3-carboxamido)ethyl)piperidine-4-carboxylate]	≤ 5.01 nM	≤ 5.01 nM	≤ 5.01 nM	5.01 to 50.1 nM	≤ 5.01 nM	kkkk (ratio≥200)
CCOC(=O)[C@@H]1CCN(CCNC(=O)c2nn(-c3cc4c(cc3OC)NCCO4)c3cc(-c4cnn5cccnc45)ncc23)C1 [Example 43, ethyl (R)-1-(2-(1-(6-methoxy-3,4-dihydro-2H-benzo[b][1,4]oxazin-7-yl)-6-(pyrazolo[1,5-a]pyrimidin-3-yl)-1H-pyrazolo[4,3-c]pyridine-3-carboxamido)ethyl)pyrrolidine-3-carboxylate]	≤ 5.01 nM	≤ 5.01 nM	≤ 5.01 nM	5.01 to 50.1 nM	5.01 to 50.1 nM	kkk (200>ratio≥100)
CCOC(=O)C1CCN(CCOC(=O)Nc2nn(-c3cc4c(cc3OC)NCCO4)c3cc(-c4cnn5cccnc45)ncc23)CC1 [Example 41, ethyl 1-(2-(((1-(6-methoxy-3,4-dihydro-2H-benzo[b][1,4]oxazin-7-yl)-6-(pyrazolo[1,5-a]pyrimidin-3-yl)-1H-pyrazolo[4,3-c]pyridin-3-yl)carbamoyl)oxy)ethyl)piperidine-4-carboxylate]	≤ 5.01 nM	≤ 5.01 nM	≤ 5.01 nM	5.01 to 50.1 nM	≤ 5.01 nM	kkk (200>ratio≥100)
CCOC(=O)C1(F)CCN(CCNC(=O)c2nn(-c3cc4c(cc3OC)NCCO4)c3cc(-c4cnn5cccnc45)ncc23)CC1 [Example 28, ethyl 4-fluoro-1-(2-(1-(6-methoxy-3,4-dihydro-2H-benzo[b][1,4]oxazin-7-yl)-6-(pyrazolo[1,5-a]pyrimidin-3-yl)-1H-pyrazolo[4,3-c]pyridine-3-carboxamido)ethyl)piperidine-4-carboxylate]	≤ 5.01 nM	≤ 5.01 nM	≤ 5.01 nM	5.01 to 50.1 nM	5.01 to 50.1 nM	–
COc1cc2c(cc1-n1nc(C(=O)NCCN3CCC(C(=O)OC4CC(C#N)C4)CC3)c3cnc(-c4cnn5cccnc45)cc31)OCCN2 (stereo not shown) [Example 47, 3-cyanocyclobutyl 1-(2-(1-(6-methoxy-3,4-dihydro-2H-benzo[b][1,4]oxazin-7-yl)-6-(pyrazolo[1,5-a]pyrimidin-3-yl)-1H-pyrazolo[4,3-c]pyridine-3-carboxamido)ethyl)piperidine-4-carboxylate]	≤ 5.01 nM	≤ 5.01 nM	≤ 5.01 nM	5.01 to 50.1 nM	≤ 5.01 nM	kkkk (ratio≥200)
CCOC(=O)[C@H]1CCN(CCNC(=O)c2nn(-c3cc4c(cc3OC)NCCO4)c3cc(-c4cnn5cccnc45)ncc23)C1 [Example 44, ethyl (S)-1-(2-(1-(6-methoxy-3,4-dihydro-2H-benzo[b][1,4]oxazin-7-yl)-6-(pyrazolo[1,5-a]pyrimidin-3-yl)-1H-pyrazolo[4,3-c]pyridine-3-carboxamido)ethyl)pyrrolidine-3-carboxylate]	≤ 5.01 nM	≤ 5.01 nM	≤ 5.01 nM	5.01 to 50.1 nM	5.01 to 50.1 nM	kkkk (ratio≥200)
CCC(C)OC(=O)C1CCN(CCNC(=O)c2nn(-c3cc4c(cc3OC)NCCO4)c3cc(-c4cnn5cccnc45)ncc23)CC1 (stereo not shown) [Example 10, sec-butyl 1-(2-(1-(6-methoxy-3,4-dihydro-2H-benzo[b][1,4]oxazin-7-yl)-6-(pyrazolo[1,5-a]pyrimidin-3-yl)-1H-pyrazolo[4,3-c]pyridine-3-carboxamido)ethyl)piperidine-4-carboxylate]	≤ 5.01 nM	≤ 5.01 nM	≤ 5.01 nM	5.01 to 50.1 nM	≤ 5.01 nM	kkkk (ratio≥200)
COCCOC(=O)C1CCN(CCNC(=O)c2nn(-c3cc4c(cc3OC)NCCO4)c3cc(-c4cnn5cccnc45)ncc23)CC1 [Example 16, 2-methoxyethyl 1-(2-(1-(6-methoxy-3,4-dihydro-2H-benzo[b][1,4]oxazin-7-yl)-6-(pyrazolo[1,5-a]pyrimidin-3-yl)-1H-pyrazolo[4,3-c]pyridine-3-carboxamido)ethyl)piperidine-4-carboxylate]	≤ 5.01 nM	≤ 5.01 nM	≤ 5.01 nM	5.01 to 50.1 nM	≤ 5.01 nM	kkkk (ratio≥200)
COc1cc2c(cc1-n1nc(C(=O)NCCN3CCC(C(=O)O[C@@H]4CCN(C)C4)CC3)c3cnc(-c4cnn5cccnc45)cc31)OCCN2 [Example 23, (R)-1-methylpyrrolidin-3-yl 1-(2-(1-(6-methoxy-3,4-dihydro-2H-benzo[b][1,4]oxazin-7-yl)-6-(pyrazolo[1,5-a]pyrimidin-3-yl)-1H-pyrazolo[4,3-c]pyridine-3-carboxamido)ethyl)piperidine-4-carboxylate]	≤ 5.01 nM	≤ 5.01 nM	≤ 5.01 nM	5.01 to 50.1 nM	5.01 to 50.1 nM	kkk (200>ratio≥100)
COc1cc2c(cc1-n1nc(C(=O)NCCN3CCC(C(=O)O[C@H]4CCN(C)C4)CC3)c3cnc(-c4cnn5cccnc45)cc31)OCCN2 [Example 24, (S)-1-methylpyrrolidin-3-yl 1-(2-(1-(6-methoxy-3,4-dihydro-2H-benzo[b][1,4]oxazin-7-yl)-6-(pyrazolo[1,5-a]pyrimidin-3-yl)-1H-pyrazolo[4,3-c]pyridine-3-carboxamido)ethyl)piperidine-4-carboxylate]	≤ 5.01 nM	≤ 5.01 nM	≤ 5.01 nM	5.01 to 50.1 nM	5.01 to 50.1 nM	kkk (200>ratio≥100)
COc1cc2c(cc1-n1nc(C(=O)OCCCN(C)C)c3cnc(-c4cnn5cccnc45)cc31)SCCN2 [Example 7, 3-(dimethylamino)propyl 1-(6-methoxy-3,4-dihydro-2H-benzo[b][1,4]thiazin-7-yl)-6-(pyrazolo[1,5-a]pyrimidin-3-yl)-1H-pyrazolo[4,3-c]pyridine-3-carboxylate]	≤ 5.01 nM	≤ 5.01 nM	≤ 5.01 nM	≤ 5.01 nM	≤ 5.01 nM	–
COc1cc2c(cc1-n1nc(C(=O)NCCN3CCC(C(=O)O[C@@H]4CN(C)C[C@H]4F)CC3)c3cnc(-c4cnn5cccnc45)cc31)OCCN2 (relative stereo) [Example 51, (3R*,4R*)-4-fluoro-1-methylpyrrolidin-3-yl 1-(2-(1-(6-methoxy-3,4-dihydro-2H-benzo[b][1,4]oxazin-7-yl)-6-(pyrazolo[1,5-a]pyrimidin-3-yl)-1H-pyrazolo[4,3-c]pyridine-3-carboxamido)ethyl)piperidine-4-carboxylate]	≤ 5.01 nM	≤ 5.01 nM	≤ 5.01 nM	5.01 to 50.1 nM	5.01 to 50.1 nM	kkk (200>ratio≥100)
